In patent publication US20120065152A1 (SHIRE LLC, priority 2010, published 2012):
Several values for one entry are separate records, joined by “and”; a condition that tells them apart may be missing. Identical values can stand only once. Counter-ions that a name gives are not always drawn.

Assays:
[1] = Stability studies on guanfacine prodrugs in buffers; format: physicochemical
[2] = pH 1.2, 37° C., 0.1M HCl/NaCl buffer, 1 h
[3] = pH 1.2, 37° C., 0.1M HCl/NaCl buffer, time 0
[4] = pH 3.0, 20° C., 0.1M citrate buffer, 2 h
[5] = pH 3.0, 20° C., 0.1M citrate buffer, time 0
[6] = pH 6.8, 37° C., 0.1M phosphate buffer, 2 h
[7] = pH 6.8, 37° C., 0.1M phosphate buffer, time 0
[8] = pH 7.4, 37° C., 0.1M phosphate buffer, 2 h
[9] = pH 7.4, 37° C., 0.1M phosphate buffer, time 0
[10] = DMSO, organic solvent or mixture, Solubility, in DMSO
[11] = water/CH3CN (1:1), aqueous with cosolvent or surfactant or cyclodextrin, Solubility, in water/CH3CN (1:1)
[12] = DMSO, organic solvent or mixture
[13] = pH 1.2, 37° C., 0.1M HCl/NaCl buffer, time 0, Hydrochloride
[14] = pH 6.8, 37° C., 0.1M phosphate buffer, 2 h, Hydrochloride
[15] = pH 7.4, 37° C., 0.1M phosphate buffer, 2 h, Hydrochloride

SMILES | Active drug [1, 2] | Active drug [1, 3] | Pro-drug [1, 3] | Active drug [1, 4] | Active drug [1, 5] | Pro-drug [1, 5] | Active drug [1, 6] | Active drug [1, 7] | Pro-drug [1, 7] | Active drug [1, 8] | Pro-drug [1, 9] | Active drug [1, 9] | solubility (Solubility; [10]) [µg/mL] | solubility (Solubility; water, Solubility, in water) [µg/mL] | other results
N=C(NC(=O)Cc1c(Cl)cccc1Cl)NC(=O)OC[C@@H](N)Cc1cnc[nH]1.O=C(O)C(F)(F)F.O=C(O)C(F)(F)F.O=C(O)C(F)(F)F [Guanfacine-(S)-histidinyl carbamate Tri-trifluoroacetate] | 1.7 and 1.8 | 0.5 and 0.6 | 99.5 and 99.4 | 1.2 and 1.3 | 0.4 and 0.5 | 99.6 and 99.5 | 87.1 and 88.1 | 1.6 and 1.4 | 98.4 and 98.6 | 85.4 and 85.8 | 99.2 and 98.1 |  |  |  | Pro-drug [1, 2]: 84.7 and 83.3; Pro-drug [1, 4]: 98.1 and 97.8; Pro-drug [1, 6]: 0.0; Pro-drug [1, 8]: 0.0; solubility (Solubility; in DMSO): > 20000 µg/mL; solubility (Solubility; in water): > 20000 µg/mL
NC(=NC(=O)Cc1c(Cl)cccc1Cl)NC(=O)OCc1ccccc1 [Compound 10, {N′-[2-(2,6-Dichloro-phenyl)-acetyl]guanidino-carbonyloxy}toluene Hydrochloride] |  |  |  |  |  |  |  |  |  |  |  |  | > 10000 | < 1000 | solubility (Solubility; CH3CN, organic solvent or mixture, Solubility, in CH3CN): > 5000 µg/mL
Cl.N=C(NC(=O)Cc1c(Cl)cccc1Cl)NC(=O)Oc1cccc(C(=O)O)c1 [Compound 28, 3-[({[2-(2,6-dichlorophenyl)acetamido]methanimidoyl}carbamoyl)oxy]benzoic acid hydrochloride] |  |  |  |  |  |  |  |  |  |  |  |  |  |  | Solubility (in words) (Solubility): insoluble in water; solubility (Solubility; [12]): > 20000 µg/mL
[2H]C([2H])([2H])C([2H])([2H])OC(=O)NC(=N)NC(=O)Cc1c(Cl)cccc1Cl [Compound 13, {N′-[2-(2,6-Dichloro-phenyl)-acetyl]-guanidinocarbonyloxy} d5-ethane] | 0.0 | 0.0 | 100 | 0.0 | 0.0 | 100 | 0.0 | 0.0 | 100 | 0.0 | 100 | 0.0 | > 10000 | < 1000 | Pro-drug ([1]; pH 1.2, 37° C., 0.1M HCl/NaCl buffer, 1 h, listed as Guanfacine D5-Ethyl Carbamate): 97.6 and 96.6; Pro-drug ([1]; pH 3.0, 20° C., 0.1M citrate buffer, 2 h, listed as Guanfacine D5-Ethyl Carbamate): 98.7 and 98.3; Pro-drug ([1]; pH 6.8, 37° C., 0.1M phosphate buffer, 2 h, listed as Guanfacine D5-Ethyl Carbamate): 99.4 and 99.2; Pro-drug ([1]; pH 7.4, 37° C., 0.1M phosphate buffer, 2 h, listed as Guanfacine D5-Ethyl Carbamate): 99.4 and 99.2
CC(C)(C)OC(=O)NC(=N)NC(=O)Cc1c(Cl)cccc1Cl.Cl [Guanfacine Tert-Butyl Carbamate Hydrochloride] |  |  |  |  | 0.0 | 100 |  | 0.0 | 100 |  | 100 | 0.0 |  |  | Pro-drug [1, 2]: 0.0; Active drug ([1]; pH 1.2, 37° C., 0.1M HCl/NaCl buffer, 1 h, Hydrochloride): 99.7 and 100; Active drug [1, 13]: 8.8 and 9.5; Pro-drug [1, 13]: 91.2 and 90.5; Pro-drug [1, 4]: 34.5; Active drug ([1]; pH 3.0, 20° C., 0.1M citrate buffer, 2 h, Hydrochloride): 66.6 and 65.5; Active drug [1, 14]: 14.2 and 15.2; Pro-drug [1, 14]: 83.6 and 84.9; Active drug [1, 15]: 11.0 and 11.2; Pro-drug [1, 15]: 84.2 and 82.7; solubility (Solubility; in 2 mL CH3CN/1 mL H2O): > 5 mg; solubility (Solubility; in DMSO): > 10000 µg/mL; solubility (Solubility; in water): < 1000 µg/mL
N=C(NC(=O)Cc1c(Cl)cccc1Cl)NC(=O)Oc1ccc(CC(=O)O)cc1 [Compound 25, Hydrochloride] |  |  |  |  |  |  |  |  |  |  |  |  |  |  | solubility (Solubility; [12]): > 23000 µg/mL; solubility (Solubility; water): < 2300 µg/mL
CO[C@H]1O[C@H](COC(=O)NC(=N)NC(=O)Cc2c(Cl)cccc2Cl)[C@@H](O)[C@H](O)[C@H]1O.Cl [Compound 16, 2-(2,6-dichlorophenyl)-N-(N-((((2R,3S,4S,5R,6S)-3,4,5-trihydroxy-6-methoxytetrahydro-2H-pyran-2-yl)methoxy)carbonyl)carbamimidoyl)acetamide hydrochloride] |  |  |  |  |  |  |  |  |  |  |  |  |  |  | Solubility (in words) (Solubility): water, DMSO

More lines, main results first:

Active drug [1, 2] | Active drug [1, 3] | Pro-drug [1, 3] | Active drug [1, 4] | Active drug [1, 5] | Pro-drug [1, 5] | Active drug [1, 6] | Active drug [1, 7] | Pro-drug [1, 7] | Active drug [1, 8] | Pro-drug [1, 9] | Active drug [1, 9] | solubility (Solubility; [10]) [µg/mL] | solubility (Solubility; water, Solubility, in water) [µg/mL] | SMILES | other results
0.0 | 0.0 | 100 | 0.0 | 0.0 | 100 | 0.0 | 0.0 | 100 | 0.0 | 100 | 0.0 | > 10000 | < 1000 | CC(C)(C)COC(=O)NC(N)=NC(=O)Cc1c(Cl)cccc1Cl.Cl [Compound 9, 1-{N′[2-(2,6-Dichloro-phenyl)-acetyl]guanidinocarbonyloxy}-2,2-dimethylpropane Hydrochloride] | Pro-drug ([1]; pH 1.2, 37° C., 0.1M HCl/NaCl buffer, 1 h, listed as Guanfacine Neopentyl Carbamate Hydrochloride, Hydrochloride): 94.7 and 93.9; Pro-drug ([1]; pH 3.0, 20° C., 0.1M citrate buffer, 2 h, listed as Guanfacine Neopentyl Carbamate Hydrochloride, Hydrochloride): 96.1 and 96.8; Pro-drug ([1]; pH 6.8, 37° C., 0.1M phosphate buffer, 2 h, listed as Guanfacine Neopentyl Carbamate Hydrochloride, Hydrochloride): 98.3 and 97.9; Pro-drug ([1]; pH 7.4, 37° C., 0.1M phosphate buffer, 2 h, listed as Guanfacine Neopentyl Carbamate Hydrochloride, Hydrochloride): 99.2 and 98.5; solubility (Solubility; [11]): > 1000 µg/mL
0.6 | 0.0 | 100 | 0.0 | 0.0 | 100 | 0.0 | 0.0 | 100 | 0.0 | 100 | 0.0 | > 10000 | < 1000 | Cl.NC(=NC(=O)Cc1c(Cl)cccc1Cl)NC(=O)OCC1CC1 [Compound 31, {N′-[2-(2,6-Dichloro-phenyl)acetyl]-guanidino-carbonyloxy}methylcyclopropane Hydrochloride] | Pro-drug ([1]; pH 1.2, 37° C., 0.1M HCl/NaCl buffer, 1 h, listed as Guanfacine Cyclopropylmethyl Carbamate Hydrochloride, Hydrochloride): 92.9 and 92.7; Pro-drug ([1]; pH 3.0, 20° C., 0.1M citrate buffer, 2 h, listed as Guanfacine Cyclopropylmethyl Carbamate Hydrochloride, Hydrochloride): 98.3 and 98.5; Pro-drug ([1]; pH 6.8, 37° C., 0.1M phosphate buffer, 2 h, listed as Guanfacine Cyclopropylmethyl Carbamate Hydrochloride, Hydrochloride): 97.6 and 97.4; Pro-drug ([1]; pH 7.4, 37° C., 0.1M phosphate buffer, 2 h, listed as Guanfacine Cyclopropylmethyl Carbamate Hydrochloride, Hydrochloride): 99.6 and 99.5; solubility (Solubility; [11]): > 5000 µg/mL
0.0 | 0.0 | 100 | 0.0 | 0.0 | 100 | 0.0 | 0.0 | 100 | 0.0 | 100 | 0.0 | > 10000 | < 1000 | CC(C)COC(=O)NC(N)=NC(=O)Cc1c(Cl)cccc1Cl.Cl [Compound 8, 1-{N′-[2-(2,6-Dichloro-phenyl)-acetyl]-guanidinocarbonyloxy}-2-methylpropane Hydrochloride] | Pro-drug ([1]; pH 1.2, 37° C., 0.1M HCl/NaCl buffer, 1 h, listed as Guanfacine Isobutyl Carbamate Hydrochloride, Hydrochloride): 95.1 and 95.0; Pro-drug ([1]; pH 3.0, 20° C., 0.1M citrate buffer, 2 h, listed as Guanfacine Isobutyl Carbamate Hydrochloride, Hydrochloride): 95.2 and 95.3; Pro-drug ([1]; pH 6.8, 37° C., 0.1M phosphate buffer, 2 h, listed as Guanfacine Isobutyl Carbamate Hydrochloride, Hydrochloride): 98.2 and 97.9; Pro-drug ([1]; pH 7.4, 37° C., 0.1M phosphate buffer, 2 h, listed as Guanfacine Isobutyl Carbamate Hydrochloride, Hydrochloride): 95.3 and 96.7; solubility (Solubility; [11]): > 1000 µg/mL
0.0 | 0.0 | 100 | 0.0 | 0.0 | 100 | 0.0 | 0.0 | 100 | 0.0 | 100 | 0.0 | > 10000 | < 1000 | CC(C)[C@@H]1CC[C@@H](C)C[C@H]1OC(=O)NC(N)=NC(=O)Cc1c(Cl)cccc1Cl.Cl [Compound 29, 1-(R)-{N′-[2-(2,6-Dichloro-phenyl)-acetyl]-guanidinocarbonyloxy}-2-(S)-isopropyl-5-(R)-methyl-cyclohexane Hydrochloride] | Pro-drug ([1]; pH 1.2, 37° C., 0.1M HCl/NaCl buffer, 1 h, listed as Guanfacine-(−)-Menthyl Carbamate Hydrochloride, Hydrochloride): 94.6 and 95.5; Pro-drug ([1]; pH 3.0, 20° C., 0.1M citrate buffer, 2 h, listed as Guanfacine-(−)-Menthyl Carbamate Hydrochloride, Hydrochloride): 98.3 and 99.6; Pro-drug ([1]; pH 6.8, 37° C., 0.1M phosphate buffer, 2 h, listed as Guanfacine-(−)-Menthyl Carbamate Hydrochloride, Hydrochloride): 97.9 and 97.3; Pro-drug ([1]; pH 7.4, 37° C., 0.1M phosphate buffer, 2 h, listed as Guanfacine-(−)-Menthyl Carbamate Hydrochloride, Hydrochloride): 94.7 and 96.9; solubility (Solubility; 2.5 mL CH3CN/1 mL H2O, aqueous with cosolvent or surfactant or cyclodextrin, Solubility, in 2.5 mL CH3CN/1 mL H2O): > 1430 µg/mL
